Measured values reported in patent publication US12404295B2, “(Hetero)aryl-methyl-thio-beta-D-galactopyranoside derivatives” (Idorsia Pharmaceuticals Ltd, priority 2019, dated 2025).
Where two headings read alike, the source gives them in different places.

Legend:
human Gal-3 (hGal-3) = human Gal-3 (hGal-3) (Homo sapiens (Human), UniProt P17931); assay: competitive binding assay: biotinylated hGal-3 binding to microplate-adsorbed asialofetuin (ASF)
In short: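 Serially diluted compounds compete with biotinylated hGal-3 binding to adsorbed asialofetuin (3 hours, 4° C). After washing, streptavidin-peroxidase at 80 ng/mL for 1 hour at 4° C, with ABTS colour read-out. IC50 values are averaged over repeated runs.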

human Gal-1 (hGal-1) = human Gal-1 (hGal-1) (Homo sapiens (Human), UniProt P09382); assay: competitive binding assay: biotinylated hGal-1 binding to microplate-adsorbed asialofetuin (ASF); settings: Table 15; read-out: IC50 (Galectin-1 inhibition)
human Gal-1 (hGal-1), sequence (P09382 whole entry): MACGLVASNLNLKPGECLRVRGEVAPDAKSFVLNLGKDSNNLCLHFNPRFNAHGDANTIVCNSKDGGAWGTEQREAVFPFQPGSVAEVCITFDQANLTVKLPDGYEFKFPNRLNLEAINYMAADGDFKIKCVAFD
In short: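 Spectrophotometric competition readout: after compound and biotinylated hGal-1 (300-1000 ng/mL) sit 3 h at 4° C on adsorbed asialofetuin, streptavidin-peroxidase (1 h, 4° C) and ABTS reveal residual binding. Reported IC50 values are means of repeat runs.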

[1] = Table 5, read-out: IC50 (Gal-3 inhibition)
[2] = Gal-3 inhibition, binding of biotinylated hGal-3 to ASF, mean values, read-out: IC50
[3] = Table 10, 2-OMe-Gal inhibitors, read-out: IC50 (Gal-3 inhibition)

human Gal-3 (hGal-3), sequence (P17931 whole entry): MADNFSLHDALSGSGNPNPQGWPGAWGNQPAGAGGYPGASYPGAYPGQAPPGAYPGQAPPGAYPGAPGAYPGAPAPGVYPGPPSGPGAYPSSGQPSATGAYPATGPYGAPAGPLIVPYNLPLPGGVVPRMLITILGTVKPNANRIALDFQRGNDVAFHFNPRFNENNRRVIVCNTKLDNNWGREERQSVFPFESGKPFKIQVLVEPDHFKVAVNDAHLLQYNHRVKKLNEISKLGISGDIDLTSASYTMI

SMILES	IC50 (human Gal-3 (hGal-3); [1]) [µM]	IC50 (human Gal-1 (hGal-1)) [µM]	IC50 (human Gal-3 (hGal-3); [2]) [µM]	IC50 (human Gal-3 (hGal-3); [3]) [µM]	IC50 (human Gal-3 (hGal-3); Table 9, 2-OMe-Gal inhibitors, read-out: IC50 (Gal-3 inhibition)) [µM]
Cc1ccccc1[C@H](S[C@@H]1O[C@H](CO)[C@H](O)[C@H](n2cc(-c3cc(F)c(F)c(F)c3)nn2)[C@H]1O)C1(O)CCCC1 [Example 2.38.102S., (2S,3R,4S,5R,6R)-2-(((S)-(1-Hydroxycyclopentyl)(o-tolyl)methyl)thio)-6-(hydroxymethyl)-4-(4-(3,4,5-trifluorophenyl)-1H-1,2,3-triazol-1-yl)tetrahydro-2H-pyran-3,5-diol]	2.75	17			
OC[C@H]1O[C@@H](SC(c2ncccc2C(F)(F)F)C2(O)CCCC2)[C@H](O)[C@@H](n2cc(-c3cc(F)c(F)c(F)c3)nn2)[C@H]1O (stereo partly drawn) [Example 2.38.125.]		0.76	0.13		
Cc1ccccc1C(S[C@@H]1O[C@H](CO)[C@H](O)[C@H](n2cc(-c3cc(F)c(F)c(F)c3)nn2)[C@H]1O)C1(O)CCCCC1 (stereo partly drawn) [Example 2.39.102., (2S,3R,4S,5R,6R)-2-(((1-Hydroxycyclohexyl)(o-tolyl)methyl)thio)-6-(hydroxymethyl)-4-(4-(3,4,5-trifluorophenyl)-1H-1,2,3-triazol-1-yl)tetrahydro-2H-pyran-3,5-diol]	0.09	1.6			
Cc1ccccc1[C@@H](S[C@@H]1O[C@H](CO)[C@H](O)[C@H](n2cc(-c3cc(F)c(F)c(F)c3)nn2)[C@H]1O)C1(O)CCCCC1 [Example 2.39.102R., (2S,3R,4S,5R,6R)-2-(((R)-(1-Hydroxycyclohexyl)(o-tolyl)methyl)thio)-6-(hydroxymethyl)-4-(4-(3,4,5-trifluorophenyl)-1H-1,2,3-triazol-1-yl)tetrahydro-2H-pyran-3,5-diol]	0.09	1.14			
Cc1ccccc1[C@H](S[C@@H]1O[C@H](CO)[C@H](O)[C@H](n2cc(-c3cc(F)c(F)c(F)c3)nn2)[C@H]1O)C1(O)CCCCC1 [Example 2.39.102S., (2S,3R,4S,5R,6R)-2-(((S)-(1-Hydroxycyclohexyl)(o-tolyl)methyl)thio)-6-(hydroxymethyl)-4-(4-(3,4,5-trifluorophenyl)-1H-1,2,3-triazol-1-yl)tetrahydro-2H-pyran-3,5-diol]	4.54	24			
Cc1nc(C)c([C@@H](S[C@@H]2O[C@H](CO)[C@H](O)[C@H](n3cc(-c4cc(F)c(F)c(F)c4)nn3)[C@H]2O)C2(O)CCCCC2)nc1C [Example 2.39.119R., (2S,3R,4S,5R,6R)-2-(((R)-(1-Hydroxycyclohexyl) (3,5,6-trimethylpyrazin-2-yl)methyl)thio)-6-(hydroxymethyl)-4-(4-(3,4,5-trifluorophenyl)-1H-1,2,3-triazol-1-yl)tetrahydro-2H-pyran-3,5-diol]	0.07	0.73			
CO[C@@H]1[C@@H](n2cc(-c3cc(F)c(F)c(F)c3)nn2)[C@@H](O)[C@@H](CO)O[C@H]1S[C@H](c1nocc1C)C1(O)CCCCC1 [Example 2.39.120R.I., (2R,3R,4S,5R,6S)-6-(((R)-(1-Hydroxycyclohexyl)(4-methylisoxazol-3-yl)methyl)thio)-2-(hydroxymethyl)-5-methoxy-4-(4-(3,4,5-trifluorophenyl)-1H-1,2,3-triazol-1-yl)tetrahydro-2H-pyran-3-ol]		0.56		0.25	
OC[C@H]1O[C@@H](S[C@H](c2ncccc2C(F)(F)F)C2(O)CCCCC2)[C@H](O)[C@@H](n2cc(-c3cc(F)c(F)c(F)c3)nn2)[C@H]1O [Example 2.39.125R., (2S,3R,4S,5R,6R)-2-(((R)-(1-Hydroxycyclohexyl)(3-(trifluoromethyl)pyridin-2-yl)methyl)thio)-6-(hydroxymethyl)-4-(4-(3,4,5-trifluorophenyl)-1H-1,2,3-triazol-1-yl)tetrahydro-2H-pyran-3,5-diol]	0.1	0.28			

Further lines, results first:

IC50 (human Gal-3 (hGal-3); [1]) [µM]	IC50 (human Gal-1 (hGal-1)) [µM]	IC50 (human Gal-3 (hGal-3); [2]) [µM]	IC50 (human Gal-3 (hGal-3); [3]) [µM]	IC50 (human Gal-3 (hGal-3); Table 9, 2-OMe-Gal inhibitors, read-out: IC50 (Gal-3 inhibition)) [µM]	SMILES
0.11	1.8				Cc1ccccc1[C@@H](S[C@@H]1O[C@H](CO)[C@H](O)[C@H](n2cc(-c3cc(F)c(F)c(F)c3)nn2)[C@H]1O)C1(O)CCCC1 [Example 2.38.102R., (2S,3R,4S,5R,6R)-2-(((R)-(1-Hydroxycyclopentyl)(o-tolyl)methyl)thio)-6-(hydroxymethyl)-4-(4-(3,4,5-trifluorophenyl)-1H-1,2,3-triazol-1-yl)tetrahydro-2H-pyran-3,5-diol]
	0.48	0.08			OC[C@H]1O[C@@H](S[C@H](c2ncccc2C(F)(F)F)C2(O)CCCC2)[C@H](O)[C@@H](n2cc(-c3cc(F)c(F)c(F)c3)nn2)[C@H]1O [Example 2.38.125R., (2S,3R,4S,5R,6R)-2-(((R)-(1-Hydroxycyclopentyl)(3-(trifluoromethyl)pyridin-2-yl)methyl)thio)-6-(hydroxymethyl)-4-(4-(3,4,5-trifluorophenyl)-1H-1,2,3-triazol-1-yl)tetrahydro-2H-pyran-3,5-diol]
	15.1	5.62			OC[C@H]1O[C@@H](S[C@@H](c2ncccc2C(F)(F)F)C2(O)CCCC2)[C@H](O)[C@@H](n2cc(-c3cc(F)c(F)c(F)c3)nn2)[C@H]1O [Example 2.38.125S., (2S,3R,4S,5R,6R)-2-(((S)-(1-Hydroxycyclopentyl)(3-(trifluoromethyl)pyridin-2-yl)methyl)thio)-6-(hydroxymethyl)-4-(4-(3,4,5-trifluorophenyl)-1H-1,2,3-triazol-1-yl)tetrahydro-2H-pyran-3,5-diol]
3.96	18.9				Cc1nc(C)c([C@H](S[C@@H]2O[C@H](CO)[C@H](O)[C@H](n3cc(-c4cc(F)c(F)c(F)c4)nn3)[C@H]2O)C2(O)CCCCC2)nc1C [Example 2.39.119S., (2S,3R,4S,5R,6R)-2-(((S)-(1-Hydroxycyclohexyl) (3,5,6-trimethylpyrazin-2-yl)methyl)thio)-6-(hydroxymethyl)-4-(4-(3,4,5-trifluorophenyl)-1H-1,2,3-triazol-1-yl)tetrahydro-2H-pyran-3,5-diol]
0.2	0.61				Cc1conc1[C@@H](S[C@@H]1O[C@H](CO)[C@H](O)[C@H](n2cc(-c3cc(F)c(F)c(F)c3)nn2)[C@H]1O)C1(O)CCCCC1 [Example 2.39.120R., (2S,3R,4S,5R,6R)-2-(((R)-(1-Hydroxycyclohexyl)(4-methylisoxazol-3-yl)methyl)thio)-6-(hydroxymethyl)-4-(4-(3,4,5-trifluorophenyl)-1H-1,2,3-triazol-1-yl)tetrahydro-2H-pyran-3,5-diol]
	27.3		12.5		CO[C@@H]1[C@@H](n2cc(-c3cc(F)c(F)c(F)c3)nn2)[C@@H](O)[C@@H](CO)O[C@H]1S[C@@H](c1nocc1C)C1(O)CCCCC1 [Example 2.39.120S.I., (2R,3R,4S,5R,6S)-6-(((S)-(1-Hydroxycyclohexyl)(4-methylisoxazol-3-yl)methyl)thio)-2-(hydroxymethyl)-5-methoxy-4-(4-(3,4,5-trifluorophenyl)-1H-1,2,3-triazol-1-yl)tetrahydro-2H-pyran-3-ol]
	0.46			0.09	CO[C@@H]1[C@@H](n2cc(-c3cc(F)c(F)c(F)c3)nn2)[C@@H](O)[C@@H](CO)O[C@H]1S[C@H](c1ncccc1C(F)(F)F)C1(O)CCCCC1 [Example 2.39.125R.I., (2R,3R,4S,5R,6S)-6-(((R)-(1-Hydroxycyclohexyl)(3-(trifluoromethyl)pyridin-2-yl)methyl)thio)-2-(hydroxymethyl)-5-methoxy-4-(4-(3,4,5-trifluorophenyl)-1H-1,2,3-triazol-1-yl)tetrahydro-2H-pyran-3-ol]
